Values after ≈ are worked out from the molar mass of the structure shown. Read-outs that look alike come from different tables or passages of the source.
Tests used:
[1] = Kinetic solubility, shake-flask protocol; type: physicochemical; details: aqueous buffer, kinetic from dmso stock, pH 7.4 phosphate-buffered saline, 25 °C, 500 µM compound
Experimental: Kinetic solubility was determined by the shake-flask protocol. Appropriate compounds (500 µM) were incubated in an aqueous buffer (0.1 M phosphate-buffered saline pH 7.4) at 25 °C with stirring at 500 rpm. The samples were taken at the start time and after 24 h of incubation, filtered through 0.22 µm filters, and diluted with two volumes of acetonitrile. UHPLC-UV/Vis determined sample concentrations. A calibration curve was prepared to quality the compound’s contents in the test solution.

[2] = Metabolic phase I stability in human microsomes; type: in vitro ADME; details: human microsomes 0.5 mg/mL, NADPH, 37 °C; for half-life at 1 μM: read-out: HLM t1/2
Experimental: (§1) Assessment of metabolic phase I stability in mouse (CD-1™) and human microsomes (Thermo-Fisher Scientific, Waltham, MA, USA) was performed on 96-well non-binding plates (Greiner, Frickenhausen, Germany) at 1 μM concentration for verapamil (positive control) and donepezil (negative control) and tested compounds. Unless otherwise stated, all chemicals and materials were ordered from Merck Life Science (Palo Alto, CA, USA). Each biological replicate was prepared in triplicates. Briefly, mixtures were incubated in 100 mM potassium phosphate buffer with microsomes (0.5 mg/mL) and NADPH (1–1.2 mM) on a plate shaker (500 rpm) in the dark at 37 °C. A 4× solution of NADPH, a cofactor for metabolic enzymes, was prepared directly prior to the experiment by reducing NADP with G6P dehydrogenase (13.2 mM MgCl2, 13.2 mM G6P, 5.2 mM NADP, 3.2 U/mL G6P dehydrogenase, 20 min at 30 °C, 500 rpm). The negative control contained buffer instead of NADPH solution. Samples were collected at 0, 10, 20, and 40 min or 0 and 40 min for the negative and double negative controls. The reaction was stopped by protein precipitation in 2 volumes of ice-cold MeOH with 200 nM imipramine (an internal standard for LC-MS analysis). Then, the extract was mixed (1 min, 1000 rpm), filtered through a 0.22 μm filter on a 96-well plate vacuum manifold, and subjected to LC-MS analysis.

[3] = Metabolic phase I stability in mouse microsomes; type: in vitro ADME; details: NADPH, 37 °C; for microsomal CLint at 1 μM: heading: MLM Cl; for half-life at 1 μM: read-out: MLM t1/2
Experimental: as §1

PI3Kδ = target: T1, PI3Kδ (Homo sapiens, UniProt O00329); experiment: In vitro kinase inhibition assay for PI3K (ADP-Glo), PI3Kδ; type: biochemical; details: recombinant kinase, mean of two independent experiments
T1 construct: purchased Merck Millipore
T1 sequence (P27986 whole entry): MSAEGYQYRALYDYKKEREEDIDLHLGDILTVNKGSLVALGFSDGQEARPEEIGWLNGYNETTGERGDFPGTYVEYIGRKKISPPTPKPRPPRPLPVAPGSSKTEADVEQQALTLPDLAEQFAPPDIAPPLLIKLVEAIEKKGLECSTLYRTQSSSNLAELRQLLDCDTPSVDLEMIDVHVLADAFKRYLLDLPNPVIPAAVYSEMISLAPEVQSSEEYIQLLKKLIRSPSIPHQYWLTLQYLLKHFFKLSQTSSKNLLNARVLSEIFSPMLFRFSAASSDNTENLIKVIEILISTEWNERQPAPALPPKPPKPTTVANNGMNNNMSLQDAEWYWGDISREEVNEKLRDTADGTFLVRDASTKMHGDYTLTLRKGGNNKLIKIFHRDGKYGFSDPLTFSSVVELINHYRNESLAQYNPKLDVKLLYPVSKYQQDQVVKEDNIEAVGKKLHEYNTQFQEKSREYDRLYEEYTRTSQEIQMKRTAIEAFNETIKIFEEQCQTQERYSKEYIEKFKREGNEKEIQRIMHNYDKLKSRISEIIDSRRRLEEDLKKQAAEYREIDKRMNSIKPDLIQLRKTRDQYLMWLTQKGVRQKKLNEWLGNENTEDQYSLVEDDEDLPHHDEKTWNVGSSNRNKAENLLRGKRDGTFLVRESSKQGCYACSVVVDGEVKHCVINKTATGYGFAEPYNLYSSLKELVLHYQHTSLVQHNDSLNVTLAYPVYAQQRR
T1 sequence (O00329 whole entry): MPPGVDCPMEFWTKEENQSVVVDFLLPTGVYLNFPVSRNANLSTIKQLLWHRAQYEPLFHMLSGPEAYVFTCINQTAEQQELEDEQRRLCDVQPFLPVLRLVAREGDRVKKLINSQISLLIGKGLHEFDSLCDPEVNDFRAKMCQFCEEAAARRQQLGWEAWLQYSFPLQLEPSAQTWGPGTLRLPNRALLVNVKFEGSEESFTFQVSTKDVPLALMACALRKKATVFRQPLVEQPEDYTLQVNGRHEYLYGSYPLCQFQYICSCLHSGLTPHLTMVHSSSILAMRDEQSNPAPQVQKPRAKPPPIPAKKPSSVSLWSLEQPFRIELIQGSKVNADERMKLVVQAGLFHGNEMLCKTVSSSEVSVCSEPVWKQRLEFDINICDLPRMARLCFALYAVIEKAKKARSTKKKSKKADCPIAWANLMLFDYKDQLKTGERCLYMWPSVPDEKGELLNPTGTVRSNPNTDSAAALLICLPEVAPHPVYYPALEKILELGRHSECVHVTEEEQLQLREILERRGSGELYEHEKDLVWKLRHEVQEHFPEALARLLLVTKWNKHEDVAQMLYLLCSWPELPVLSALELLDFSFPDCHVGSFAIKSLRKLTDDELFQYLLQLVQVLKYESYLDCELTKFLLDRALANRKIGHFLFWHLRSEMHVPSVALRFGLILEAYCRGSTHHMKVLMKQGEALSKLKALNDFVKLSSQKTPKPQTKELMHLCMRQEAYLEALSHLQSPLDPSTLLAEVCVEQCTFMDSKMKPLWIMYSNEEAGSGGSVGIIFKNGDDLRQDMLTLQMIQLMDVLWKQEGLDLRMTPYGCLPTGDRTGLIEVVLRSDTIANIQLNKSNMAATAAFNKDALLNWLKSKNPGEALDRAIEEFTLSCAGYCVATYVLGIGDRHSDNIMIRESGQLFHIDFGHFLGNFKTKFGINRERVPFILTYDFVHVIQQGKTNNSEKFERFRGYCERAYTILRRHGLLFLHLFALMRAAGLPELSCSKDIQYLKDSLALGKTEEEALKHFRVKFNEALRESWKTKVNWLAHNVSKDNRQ
Experimental: (§2) Tested compounds were dissolved in 100% DMSO, and obtained solutions were serially diluted in 1× reaction buffer. The recombinant kinase solution was diluted in a reaction mixture comprising 5× reaction buffer, respective compound solution (1 mM sodium diacetate 4,5-bisphosphate phosphatidylinositol (PIP2) solution in 40 mM Tris buffer), and water. In a 96-wells plate, 5 μL of compound solutions and 15 μL of the kinase solution in the reaction mixture were added per well. To initiate the interaction of chemical compounds to be tested with the enzyme, the plate was incubated for 10 min at a suitable temperature in a plate thermostat with orbital shaking at 600 rpm. Negative control wells contained all the above reagents except tested compound and kinase, and positive control wells contained all the above reagents except tested compounds. […] Subsequently, the plate was incubated for 1 h at 25 or 30 °C (depending on the PI3K isoform tested) in a plate thermostat with orbital shaking of the plate contents at 600 rpm. The reaction conditions are combined in the table below (Table 6).
(§3) Detection of ADP formed in the enzymatic reaction was then performed using ADP-Glo Kinase Assay™ (Promega, Madison, WI, USA). To the wells of a 96-well plate, 25 μL of ADP-Glo Reagent™ was added, and the plate was incubated for 40 min at 25 °C in a plate thermostat with orbital shaking at 600 rpm. Then 50 μL of Kinase Detection Reagent were added to each well, and the plate was incubated for 40 min at 25 °C in a plate thermostat with orbital shaking at 600 rpm. Once the incubation was complete, the luminescence intensity was measured using a Victor Light luminometer (Perkin Elmer, Inc., Waltham, MA, USA). IC50 values were determined based on luminescence intensity measured in wells containing tested compounds at different concentrations in relation to control wells. […] Each compound was tested at least in quadruplicates (4 wells) on two 96-well plates utilizing at least 4 wells for each control.

CD19 cells = experiment: B cells proliferation by flow cytometry (CFSE); type: cell-based; details: B-cell, 96 h, CD19 cells from PBMC, activated by αIgM and ODN2006, four days
Experimental: CD19 cells were isolated from PBMC using magnetic beads (Stem Cell, Cambridge, MA, USA) and then labeled with 2 µM CFSE (Invitrogen, Waltham, MA, USA).
After four days, cells were stained with LIVE/DEAD™ kit (Invitrogen, Waltham, MA, USA). Samples were acquired using Attune NxT Flow Cytometer (Invitrogen, Waltham, MA, USA) and analyzed using FlowJo software. Each biological assay was performed with cells isolated from a different donor. The presented results constitute the average value of the percentage of proliferating cells from 3 independent experiments.

PI3Kγ = target: T2, PI3Kγ (Homo sapiens, UniProt P48736); experiment: In vitro kinase inhibition assay for PI3K (ADP-Glo), PI3Kγ; type: biochemical; details: for Fold Selectivity γ/δ: ratio of IC50 PI3Kγ to IC50 PI3Kδ
T2 construct: purchased Merck Millipore
T2 sequence (P48736 whole entry): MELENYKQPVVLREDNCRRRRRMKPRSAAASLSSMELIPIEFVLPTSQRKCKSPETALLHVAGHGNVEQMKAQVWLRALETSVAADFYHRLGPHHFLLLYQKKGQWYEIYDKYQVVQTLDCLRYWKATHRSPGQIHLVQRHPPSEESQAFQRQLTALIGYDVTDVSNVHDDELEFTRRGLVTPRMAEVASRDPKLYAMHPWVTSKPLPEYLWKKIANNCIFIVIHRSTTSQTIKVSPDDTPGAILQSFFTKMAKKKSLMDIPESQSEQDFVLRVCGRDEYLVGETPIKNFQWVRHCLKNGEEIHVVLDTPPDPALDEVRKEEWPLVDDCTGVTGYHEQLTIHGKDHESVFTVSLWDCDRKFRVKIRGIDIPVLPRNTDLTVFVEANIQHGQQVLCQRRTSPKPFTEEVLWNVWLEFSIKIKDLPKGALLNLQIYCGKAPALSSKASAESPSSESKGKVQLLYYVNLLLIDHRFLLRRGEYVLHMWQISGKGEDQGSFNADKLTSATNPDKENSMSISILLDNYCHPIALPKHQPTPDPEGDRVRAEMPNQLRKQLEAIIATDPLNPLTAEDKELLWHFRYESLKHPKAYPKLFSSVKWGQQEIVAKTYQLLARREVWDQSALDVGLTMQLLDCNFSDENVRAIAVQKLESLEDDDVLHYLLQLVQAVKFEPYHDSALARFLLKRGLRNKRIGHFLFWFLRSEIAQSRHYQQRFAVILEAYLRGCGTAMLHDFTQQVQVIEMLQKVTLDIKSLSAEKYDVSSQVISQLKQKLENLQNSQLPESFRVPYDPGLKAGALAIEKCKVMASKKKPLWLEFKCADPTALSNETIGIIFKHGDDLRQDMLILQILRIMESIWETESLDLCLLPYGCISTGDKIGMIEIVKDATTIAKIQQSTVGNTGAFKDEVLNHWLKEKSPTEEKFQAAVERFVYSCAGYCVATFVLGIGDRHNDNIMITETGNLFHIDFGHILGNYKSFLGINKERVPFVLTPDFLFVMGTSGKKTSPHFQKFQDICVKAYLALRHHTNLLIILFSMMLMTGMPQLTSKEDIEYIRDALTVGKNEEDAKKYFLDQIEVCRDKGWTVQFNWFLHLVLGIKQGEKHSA
Experimental: as §2, §3

PI3Kβ = target: T3, PI3Kβ (Homo sapiens, UniProt P42338); experiment: In vitro kinase inhibition assay for PI3K (ADP-Glo), PI3Kβ; type: biochemical; details: for Fold Selectivity β/δ: ratio of IC50 PI3Kβ to IC50 PI3Kδ
T3 construct: purchased Merck Millipore
T3 sequence (P42338 whole entry): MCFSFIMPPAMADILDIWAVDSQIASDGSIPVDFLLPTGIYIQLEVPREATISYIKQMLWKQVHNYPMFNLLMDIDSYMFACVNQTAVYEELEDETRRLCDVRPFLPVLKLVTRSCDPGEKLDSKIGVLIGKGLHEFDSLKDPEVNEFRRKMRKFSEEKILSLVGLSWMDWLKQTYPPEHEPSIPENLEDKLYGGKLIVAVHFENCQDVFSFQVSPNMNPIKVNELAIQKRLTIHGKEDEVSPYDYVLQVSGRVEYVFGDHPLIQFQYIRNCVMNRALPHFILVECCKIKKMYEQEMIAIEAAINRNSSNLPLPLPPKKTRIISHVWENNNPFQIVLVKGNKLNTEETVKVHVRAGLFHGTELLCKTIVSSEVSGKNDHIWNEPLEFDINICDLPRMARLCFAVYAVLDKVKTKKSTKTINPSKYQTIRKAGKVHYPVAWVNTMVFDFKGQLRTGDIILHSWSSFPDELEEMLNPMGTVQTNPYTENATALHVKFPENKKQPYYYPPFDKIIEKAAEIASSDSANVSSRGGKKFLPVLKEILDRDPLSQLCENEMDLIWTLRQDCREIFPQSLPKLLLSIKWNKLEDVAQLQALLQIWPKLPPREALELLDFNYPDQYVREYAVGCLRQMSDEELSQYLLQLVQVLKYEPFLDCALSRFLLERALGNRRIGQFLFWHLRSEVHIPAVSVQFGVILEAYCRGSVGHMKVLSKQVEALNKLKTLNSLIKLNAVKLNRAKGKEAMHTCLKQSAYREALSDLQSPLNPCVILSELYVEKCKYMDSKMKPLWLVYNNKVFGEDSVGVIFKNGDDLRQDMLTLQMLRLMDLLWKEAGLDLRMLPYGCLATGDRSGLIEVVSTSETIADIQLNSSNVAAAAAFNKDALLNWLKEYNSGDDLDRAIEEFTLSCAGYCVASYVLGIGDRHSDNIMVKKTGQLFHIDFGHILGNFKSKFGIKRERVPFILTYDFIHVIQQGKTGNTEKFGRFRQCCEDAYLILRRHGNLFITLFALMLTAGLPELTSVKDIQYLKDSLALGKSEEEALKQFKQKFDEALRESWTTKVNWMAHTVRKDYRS
T3 sequence (P27986 whole entry, further chain): as the sequence (P27986 whole entry) above
Experimental: as §2, §3

PI3Kα = target: T4, PI3Kα (Homo sapiens, UniProt P42336); experiment: In vitro kinase inhibition assay for PI3K (ADP-Glo), PI3Kα; type: biochemical; details: for IC50: IC50 PI3K α, recombinant kinase, ADP-Glo, mean of two independent experiments; for Fold Selectivity α/δ: ratio of IC50 PI3Kα to IC50 PI3Kδ
T4 construct: purchased Carna Biosciences
T4 sequence (P42336 whole entry): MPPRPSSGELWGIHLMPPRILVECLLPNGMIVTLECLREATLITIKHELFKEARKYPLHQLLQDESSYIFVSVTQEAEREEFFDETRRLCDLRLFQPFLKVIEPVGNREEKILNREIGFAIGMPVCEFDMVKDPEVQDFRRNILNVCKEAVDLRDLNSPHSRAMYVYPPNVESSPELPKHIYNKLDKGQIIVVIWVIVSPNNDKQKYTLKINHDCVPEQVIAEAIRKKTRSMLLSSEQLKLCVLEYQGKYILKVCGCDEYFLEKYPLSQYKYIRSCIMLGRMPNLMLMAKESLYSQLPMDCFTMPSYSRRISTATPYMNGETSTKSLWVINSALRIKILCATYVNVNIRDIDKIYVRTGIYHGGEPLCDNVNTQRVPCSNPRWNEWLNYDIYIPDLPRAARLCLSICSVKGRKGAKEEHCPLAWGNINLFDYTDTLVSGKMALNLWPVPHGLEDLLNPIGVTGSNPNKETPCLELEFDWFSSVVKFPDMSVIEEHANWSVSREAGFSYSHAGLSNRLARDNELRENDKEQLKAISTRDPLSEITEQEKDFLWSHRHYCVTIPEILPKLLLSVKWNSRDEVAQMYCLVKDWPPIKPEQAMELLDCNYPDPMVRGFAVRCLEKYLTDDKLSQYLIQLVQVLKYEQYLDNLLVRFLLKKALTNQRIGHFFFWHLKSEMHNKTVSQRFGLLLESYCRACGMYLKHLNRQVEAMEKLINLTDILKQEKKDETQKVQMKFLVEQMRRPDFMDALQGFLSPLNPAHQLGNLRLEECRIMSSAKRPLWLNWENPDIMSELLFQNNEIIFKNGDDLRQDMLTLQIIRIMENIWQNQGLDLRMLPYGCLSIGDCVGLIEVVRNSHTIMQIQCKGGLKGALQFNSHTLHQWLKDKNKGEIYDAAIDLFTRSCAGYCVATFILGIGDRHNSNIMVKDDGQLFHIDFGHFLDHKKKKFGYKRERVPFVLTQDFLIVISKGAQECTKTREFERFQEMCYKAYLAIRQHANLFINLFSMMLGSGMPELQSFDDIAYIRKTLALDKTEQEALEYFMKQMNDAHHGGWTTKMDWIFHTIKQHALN
T4 sequence (P27986 whole entry partner): as the sequence (P27986 whole entry) above
Experimental: Tested compounds were dissolved in 100% DMSO, and obtained solutions were serially diluted in 1× reaction buffer. The recombinant kinase solution was diluted in a reaction mixture comprising 5× reaction buffer, respective compound solution (1 mM sodium diacetate 4,5-bisphosphate phosphatidylinositol (PIP2) solution in 40 mM Tris buffer), and water. In a 96-wells plate, 5 μL of compound solutions and 15 μL of the kinase solution in the reaction mixture were added per well. To initiate the interaction of chemical compounds to be tested with the enzyme, the plate was incubated for 10 min at a suitable temperature in a plate thermostat with orbital shaking at 600 rpm. Negative control wells contained all the above reagents except tested compound and kinase, and positive control wells contained all the above reagents except tested compounds. The enzymatic reaction was initiated by adding 5 μL of 150 μM ATP solution. Subsequently, the plate was incubated for 1 h at 25 or 30 °C (depending on the PI3K isoform tested) in a plate thermostat with orbital shaking of the plate contents at 600 rpm. The reaction conditions are combined in the table below (Table 6).
Detection of ADP formed in the enzymatic reaction was then performed using ADP-Glo Kinase Assay™ (Promega, Madison, WI, USA). To the wells of a 96-well plate, 25 μL of ADP-Glo Reagent™ was added, and the plate was incubated for 40 min at 25 °C in a plate thermostat with orbital shaking at 600 rpm. Then 50 μL of Kinase Detection Reagent were added to each well, and the plate was incubated for 40 min at 25 °C in a plate thermostat with orbital shaking at 600 rpm. Once the incubation was complete, the luminescence intensity was measured using a Victor Light luminometer (Perkin Elmer, Inc., Waltham, MA, USA). IC50 values were determined based on luminescence intensity measured in wells containing tested compounds at different concentrations in relation to control wells. These values were calculated with Graph Pad 5.03 software by fitting the curve using non-linear regression. Each compound was tested at least in quadruplicates (4 wells) on two 96-well plates utilizing at least 4 wells for each control. Averaged results of inhibition activity respective to specific isoforms of PI3K kinases for tested compounds are presented as IC50 values in Table 1, Table 2, Table 3 and Table 4.

[4] = CD-1, liver microsomes, mouse microsomes 0.5 mg/mL

CC(C)(C)N1CCN(Cc2cc3nc(-c4cccc5[nH]ccc45)cc(N4CCOCC4)n3n2)CC1 [Compound 37, 2-((4-tert-butylpiperazin-1-yl)methyl)-5-(1H-indol-4-yl)-7-(morpholin-4-yl)pyrazolo[1,5-a]pyrimidine]
solubility kinetic at 24 h [1]: 444 µM (≈ 210 µg/mL) | microsomal CLint at 1 μM ([2]; liver microsomes, heading: HLM Cl): 22.8 µL/min/mg | half-life at 1 μM ([2]; liver microsomes): 1.27 h | microsomal CLint at 1 μM [3, 4]: 13.7 µL/min/mg | half-life at 1 μM [3, 4]: 2.1 h | IC50 (PI3Kδ; read-out: IC50 PI3K δ): 6.6 nM | IC50 (CD19 cells): 20 nM | Fold Selectivity γ/δ (PI3Kγ): >9091 | IC50 (PI3Kγ; recombinant kinase, ADP-Glo, mean of two independent experiments, read-out: IC50 PI3K γ): > 60000 nM | Fold Selectivity β/δ (PI3Kβ): 829 | IC50 (PI3Kβ; recombinant kinase, ADP-Glo, mean of two independent experiments, read-out: IC50 PI3K β): 5470 nM | IC50 (PI3Kα): 12500 nM | Fold Selectivity α/δ (PI3Kα): 1889

CC(C)(C)N1CCN(Cc2cc3nc(-c4cncc5[nH]ccc45)cc(N4CCOCC4)n3n2)CC1 [Compound 54, 2-((4-tert-butylpiperazin-1-yl)methyl)-5-(1H-pyrrolo [2,3-c]pyridin-4-yl)-7-(morpholin-4-yl)pyrazolo[1,5-a]pyrimidine]
solubility kinetic at 24 h [1]: > 500 µM | half-life at 1 μM [2]: 6.17 h | microsomal CLint at 1 μM ([3]; CD-1, microsomes, mouse microsomes 0.5 mg/mL): 7 µL/min/mg | half-life at 1 μM ([3]; CD-1, mouse microsomes 0.5 mg/mL): 3.3 h | IC50 (PI3Kδ; IC50 PI3K δ): 2.8 nM | IC50 (CD19 cells): 19 nM | IC50 (PI3Kγ): 34400 nM | Fold Selectivity γ/δ (PI3Kγ): 12,286 | IC50 (PI3Kβ): 21600 nM | Fold Selectivity β/δ (PI3Kβ): 7714 | IC50 (PI3Kα): 2670 nM | Fold Selectivity α/δ (PI3Kα): 954

— PMC9412374, “Design, Synthesis, and Development of pyrazolo[1,5-a]pyrimidine Derivatives as a Novel Series of Selective PI3Kδ Inhibitors: Part I—Indole Derivatives” (Pharmaceuticals, 2022)
